For 64 molecules, IC50 results are on record in US9102670B2, “Pyrido-, pyrazo- and pyrimido-pyrimidine derivatives as mTOR inhibitors” (KuDOS Pharmaceuticals Limited, priority 2006, dated 2015).

Each structure is given as a SMILES string.

In the first experiment the test system is phosphorylation of Serine 473 in Akt. The experiment is described as follows: In Vitro Phospho-Ser473 Akt Assay in MDA-MB-468 cells. The format is cell-based. The conditions noted are these: Homo sapiens, MDA-MB-468, read-out: IC50 values against mTOR, phospho-Ser473 Akt assay, MDA-MB-468 cells.
On to `C[C@@H]1CN(c2nc(N3CCOC[C@@H]3C)c3ccc(-c4ccsc4)nc3n2)C[C@H](C)O1` [Example 1k], for which the IC50 was below 100 nM.
With `COc1ccc(-c2ccc3c(N4CCOC[C@@H]4C)nc(N4CCOCC4)nc3n2)cc1CO` [Example 1l], the IC50 was below 100 nM.
As to `C[C@H]1COCCN1c1nc(N2CCOC[C@@H]2C)c2ccc(-c3cccnc3F)nc2n1` [Example 1p], the IC50 was below 300 nM.
As for `C[C@H]1COCCN1c1nc(N2CCOC[C@@H]2C)c2ccc(-c3ccc(N4CCOCC4)nc3)nc2n1` [Example 1q], the IC50 was below 300 nM.
As for `C[C@H]1COCCN1c1nc(N2CCOC[C@@H]2C)c2ccc(-c3cnn(C)c3)nc2n1` [Example 1s], the IC50 was below 100 nM.
Consider `C[C@H]1COCCN1c1nc(N2CCOC[C@@H]2C)c2ccc(-c3ccc(N)nc3)nc2n1` [Example 1u], for which the IC50 was below 100 nM.
On the same count and under the same terms, the value for `C[C@H]1COCCN1c1nc(N2CCCCC2CO)nc2nc(-c3cccc(C(N)=O)c3)ccc12` (stereo partly shown) [Example 2f] was below 300 nM; that for `C[C@H]1COCCN1c1nc(N2CCCCC2CO)nc2nc(-c3ccc(N)nc3)ccc12` (stereo partly shown) [Example 2g] was below 300 nM; that for `C[C@H]1COCCN1c1nc(N2CCOC[C@@H]2C)c2ccc(-c3cccc(C(=O)Nc4cc[nH]n4)c3)nc2n1` [Example 3a] was below 300 nM.
On to `CNC(=O)c1cc(-c2ccc3c(N4CCOC[C@@H]4C)nc(N4CCOC[C@@H]4C)nc3n2)ccc1OC` [Example 3ad], for which the IC50 is below 100 nM.
`C[C@H]1COCCN1c1nc(N2CCOC[C@@H]2C)c2ccc(-c3cccc(C(=O)NCCF)c3)nc2n1` [Example 3e]: the IC50 was below 300 nM.
`C[C@H]1COCCN1c1nc(N2CCOC[C@@H]2C)c2ccc(-c3cccc(C(=O)NC4CCOCC4)c3)nc2n1` [Example 3i]: the IC50 was below 100 nM.
With `C[C@H]1COCCN1c1nc(N2CCOC[C@@H]2C)c2ccc(-c3cccc(C(=O)NCC(F)F)c3)nc2n1` [Example 3l], the half-maximal inhibitory concentration (IC50) was below 100 nM.
As for `CON(C)C(=O)c1cc(-c2ccc3c(N4CCOC[C@@H]4C)nc(N4CCOC[C@@H]4C)nc3n2)ccc1F` [Example 3y], the IC50 was below 100 nM.
Same read-out and setting: the value for `CNCc1ccc(-c2ccc3c(N4CCOC[C@@H]4C)nc(N4CCOC[C@@H]4C)nc3n2)cc1` [Example 4a] was below 100 nM; that for `COCCNCc1cc(-c2ccc3c(N4CCOC[C@@H]4C)nc(N4CCOC[C@@H]4C)nc3n2)ccc1F` [Example 4aa] was below 300 nM; that for `C[C@H]1COCCN1c1nc(N2CCOC[C@@H]2C)c2ccc(-c3ccc(F)c(CNCCO)c3)nc2n1` [Example 4ac] was below 100 nM.
Regarding `C[C@H]1COCCN1c1nc(N2CCOC[C@@H]2C)c2ccc(-c3ccc(F)c(CN4CC[C@@H](O)C4)c3)nc2n1` [Example 4ad], the half-maximal inhibitory concentration (IC50) is below 300 nM.
`C[C@H]1COCCN1c1nc(N2CCOC[C@@H]2C)c2ccc(-c3ccc(F)c(CN(C)C)c3)nc2n1` [Example 4af]: the IC50 was below 100 nM.
The same measure, in the same setting: the value for `C[C@H]1COCCN1c1nc(N2CCOC[C@@H]2C)c2ccc(-c3ccc(F)c(CN4CCC[C@@H](O)C4)c3)nc2n1` [Example 4ah] was below 300 nM.
For `CC(C)N(C)Cc1cc(-c2ccc3c(N4CCOC[C@@H]4C)nc(N4CCOC[C@@H]4C)nc3n2)ccc1F` [Example 4ai], the IC50 was below 100 nM.
For the molecule `C[C@H]1COCCN1c1nc(N2CCOC[C@@H]2C)c2ccc(-c3ccc(F)c(CN4CC[C@H](O)C4)c3)nc2n1` [Example 4ak], the IC50 was below 100 nM.
Still for that read-out and setting: the value for `COc1ccc(-c2ccc3c(N4CCOC[C@@H]4C)nc(N4CCOC[C@@H]4C)nc3n2)cc1CNC(C)C` [Example 4am] was below 100 nM; that for `COc1ccc(-c2ccc3c(N4CCOC[C@@H]4C)nc(N4CCOC[C@@H]4C)nc3n2)cc1CNC1CCCC1` [Example 4an] was below 300 nM.
For `COc1ccc(-c2ccc3c(N4CCOC[C@@H]4C)nc(N4CCOC[C@@H]4C)nc3n2)cc1CNC1CCCCC1` [Example 4ao], the IC50 is below 100 nM.
For the molecule `COc1ccc(-c2ccc3c(N4CCOC[C@@H]4C)nc(N4CCOC[C@@H]4C)nc3n2)cc1CNCc1cccs1` [Example 4ap], the IC50 was below 300 nM.
Regarding `COc1ccc(-c2ccc3c(N4CCOC[C@@H]4C)nc(N4CCOC[C@@H]4C)nc3n2)cc1CNC1CCOCC1` [Example 4aq], the IC50 was below 100 nM.
`COc1ccc(-c2ccc3c(N4CCOC[C@@H]4C)nc(N4CCOC[C@@H]4C)nc3n2)cc1CNCCC(C)(C)C` [Example 4as]: the IC50 is below 100 nM.
Turning to `COc1ccc(-c2ccc3c(N4CCOC[C@@H]4C)nc(N4CCOC[C@@H]4C)nc3n2)cc1CNCCC(C)C` [Example 4at], the IC50 was below 100 nM.
With `COc1ccc(-c2ccc3c(N4CCOC[C@@H]4C)nc(N4CCOC[C@@H]4C)nc3n2)cc1CNC(C)CC(C)C` (stereo partly shown) [Example 4au], the IC50 was below 100 nM.
In the case of `CCN(CC)CCCNCc1cc(-c2ccc3c(N4CCOC[C@@H]4C)nc(N4CCOC[C@@H]4C)nc3n2)ccc1OC` [Example 4av], the IC50 was below 300 nM.
Regarding `COc1ccc(-c2ccc3c(N4CCOC[C@@H]4C)nc(N4CCOC[C@@H]4C)nc3n2)cc1CNC1CCCCC1C` (stereo partly shown) [Example 4aw], the IC50 was below 100 nM.
As for `COc1ccc(-c2ccc3c(N4CCOC[C@@H]4C)nc(N4CCOC[C@@H]4C)nc3n2)cc1CNCC1CC1` [Example 4ax], the IC50 was below 100 nM.
In the case of `CCCCNCc1cc(-c2ccc3c(N4CCOC[C@@H]4C)nc(N4CCOC[C@@H]4C)nc3n2)ccc1OC` [Example 4ay], the concentration for half-maximal inhibition (IC50) was below 100 nM.
For the molecule `COc1ccc(-c2ccc3c(N4CCOC[C@@H]4C)nc(N4CCOC[C@@H]4C)nc3n2)cc1CNCC(C)C` [Example 4az], the IC50 is below 100 nM.
For `C[C@H]1COCCN1c1nc(N2CCOC[C@@H]2C)c2ccc(-c3ccc(CN)cc3)nc2n1` [Example 4b], the IC50 is below 100 nM.
The same measure, in the same setting: the value for `COc1ccc(-c2ccc3c(N4CCOC[C@@H]4C)nc(N4CCOC[C@@H]4C)nc3n2)cc1CNCCO` [Example 4ba] was below 100 nM.
With `COCCNCc1cc(-c2ccc3c(N4CCOC[C@@H]4C)nc(N4CCOC[C@@H]4C)nc3n2)ccc1OC` [Example 4bb], the IC50 is below 100 nM.
On the same count and under the same terms, the value for `COc1ccc(-c2ccc3c(N4CCOC[C@@H]4C)nc(N4CCOC[C@@H]4C)nc3n2)cc1CNC1CCC(C)CC1` (stereo partly shown) [Example 4bc] was below 100 nM; that for `COc1ccc(CCNCc2cc(-c3ccc4c(N5CCOC[C@@H]5C)nc(N5CCOC[C@@H]5C)nc4n3)ccc2OC)cc1` [Example 4bd] was below 100 nM; that for `COc1ccc(-c2ccc3c(N4CCOC[C@@H]4C)nc(N4CCOC[C@@H]4C)nc3n2)cc1CNCCc1cnc[nH]1` [Example 4be] was below 100 nM.
The same measure, in the same setting: the value for `COc1ccc(-c2ccc3c(N4CCOC[C@@H]4C)nc(N4CCOC[C@@H]4C)nc3n2)cc1CNC1CCCCCCC1` [Example 4bf] was below 100 nM; that for `C[C@H]1COCCN1c1nc(N2CCOC[C@@H]2C)c2ccc(-c3ccc(CN4CC[C@@H](O)C4)cc3)nc2n1` [Example 4c] was below 100 nM.
The same measure, in the same setting: the value for `C[C@H]1COCCN1c1nc(N2CCOC[C@@H]2C)c2ccc(-c3ccc(CN4CC[C@H](O)C4)cc3)nc2n1` [Example 4d] was below 100 nM; that for `C[C@H]1COCCN1c1nc(N2CCOC[C@@H]2C)c2ccc(-c3ccc(CNC4CCOCC4)cc3)nc2n1` [Example 4e] was below 100 nM.
With `CCOCc1cccc(-c2ccc3c(N4CCOC[C@@H]4C)nc(N4CCOC[C@@H]4C)nc3n2)c1` [Example 4g], the half-inhibitory concentration (IC50) was below 300 nM.
Regarding `C[C@H]1COCCN1c1nc(N2CCOC[C@@H]2C)c2ccc(-c3cccc(CNCCO)c3)nc2n1` [Example 4h], the IC50 is below 100 nM.
Take `C[C@H]1COCCN1c1nc(N2CCOC[C@@H]2C)c2ccc(-c3cccc(CN)c3)nc2n1` [Example 4i]: the IC50 is below 100 nM.
For the molecule `C[C@H]1COCCN1c1nc(N2CCOC[C@@H]2C)c2ccc(-c3cccc(CNC4CC4)c3)nc2n1` [Example 4j], the IC50 was below 100 nM.
For the molecule `CC(C)NCc1cccc(-c2ccc3c(N4CCOC[C@@H]4C)nc(N4CCOC[C@@H]4C)nc3n2)c1` [Example 4k], the IC50 was below 100 nM.
`CNCc1cccc(-c2ccc3c(N4CCOC[C@@H]4C)nc(N4CCOC[C@@H]4C)nc3n2)c1` [Example 4l]: the concentration for half-maximal inhibition (IC50) was below 100 nM.
Take `C[C@H]1COCCN1c1nc(N2CCOC[C@@H]2C)c2ccc(-c3cccc(CNC4CCOCC4)c3)nc2n1` [Example 4m]: the IC50 was below 100 nM.
Turning to `C[C@H]1COCCN1c1nc(N2CCOC[C@@H]2C)c2ccc(-c3cccc(CNCC4CC4)c3)nc2n1` [Example 4n], the half-inhibitory concentration (IC50) is below 100 nM.
Take `COCCNCc1cccc(-c2ccc3c(N4CCOC[C@@H]4C)nc(N4CCOC[C@@H]4C)nc3n2)c1` [Example 4o]: the IC50 is below 100 nM.

Still in this experiment, the particulars now being: Homo sapiens, MDA-MB-468, read-out: IC50 values against mTOR, phospho-Ser473 Akt assay, MDA-MB-468 cells, upper bound.
As for `C[C@H]1COCCN1c1nc(N2CCCC(CO)C2)nc2nc(-c3cccc(C(N)=O)c3)ccc12` (stereo partly shown) [Example 2d], the IC50 is below 1000 nM.
Turning to `C[C@H]1COCCN1c1nc(N2CCC(c3ccncc3)CC2)nc2nc(-c3ccc(N)nc3)ccc12` [Example 2e], the IC50 was below 1000 nM.
Turning to `C[C@H]1COCCN1c1nc(N2CCC(CO)CC2)nc2nc(-c3cccc(C(N)=O)c3)ccc12` [Example 2h], the half-maximal inhibitory concentration (IC50) was below 1000 nM.
As for `C[C@H]1COCCN1c1nc(N2CCC(CCO)CC2)nc2nc(-c3ccc(N)nc3)ccc12` [Example 2j], the 50% inhibitory concentration (IC50) was below 1000 nM.
For the molecule `C[C@H]1COCCN1c1nc(N2CCOC[C@@H]2C)c2ccc(-c3cccc(C(=O)NCC(F)(F)F)c3)nc2n1` [Example 3f], the IC50 is below 1000 nM.
`C[C@H]1COCCN1c1nc(N2CCOC[C@@H]2C)c2ccc(-c3cccc(C(=O)N4CC[C@@H](O)C4)c3)nc2n1` [Example 3g]: the IC50 is below 1000 nM.
As for `CCN(C)C(=O)c1cc(-c2ccc3c(N4CCOC[C@@H]4C)nc(N4CCOC[C@@H]4C)nc3n2)ccc1OC` [Example 3u], the IC50 is below 1000 nM.
`C[C@H]1COCCN1c1nc(N2CCOC[C@@H]2C)c2ccc(-c3ccc(F)c(CNCCF)c3)nc2n1` [Example 4ab]: the IC50 was below 1000 nM.
On the same count and under the same terms, the value for `COCCN(C)Cc1cc(-c2ccc3c(N4CCOC[C@@H]4C)nc(N4CCOC[C@@H]4C)nc3n2)ccc1F` [Example 4aj] was below 1000 nM.

Still in this experiment, the particulars now being: Homo sapiens; phospho-Ser473 Akt assay, MDA-MB-468 cells, upper bound; read-out: IC50 values against mTOR.
For the molecule `C[C@H]1COCCN1c1nc(N2CCOC[C@@H]2C)c2ccc(-c3cccc(Cl)n3)nc2n1` [Example 1v], the IC50 is below 1000 nM.

The IC50 is the concentration at which inhibition is half-maximal.
